Experimental data taken from BigSolDB 2.1.

C(=C\c1ccccc1)/CN1CCN(C(c2ccccc2)c2ccccc2)CC1
solubility (mole fraction)
Conditions	288.5 K	293.5 K	298.4 K	303.3 K	308.3 K	313.2 K
in acetonitrile	0.000877	0.00105	0.00137	0.00158	0.00204	0.00273
in isopropanol	0.00064	0.000811	0.000994	0.00127	0.00165	0.00208
in n-butanol	0.00273	0.00351	0.00412	0.00499	0.00607	0.00804
in n-butyl acetate	0.0153	0.0197	0.0226	0.0272	0.0337	0.0425
